{"source": "patent US7119089B2", "about": "“Phenothiazine kinesin inhibitors” (Cytokinetics, Inc., priority 2001, dated 2006)", "key": {"A549 cells": {"system": "A549 cells", "conditions": "data provided by National Cancer Institute; cited from earlier work"}, "[1]": {"system": "Skov-3 cells (human ovarian cancer)", "test": "FACS analysis of cell cycle stage by DNA content (mitotic arrest)", "format": "cell-based", "conditions": "24 hours treatment, paclitaxel at 10 nM", "protocol": "FACS analysis to determine cell cycle stage by measuring DNA content was performed as follows. Skov-3 cells (human ovarian cancer) were split 1:10 for plating in 10 cm dishes and grown to subconfluence with RPMI 1640 medium containing 5% fetal bovine serum (FBS). The cells were then treated with either 10 nM paclitaxel, the test compound or 0.25% DMSO (vehicle for compounds) for 24 hours. Cells were then rinsed off the plates with PBS containing 5 mM EDTA, pelleted, washed once in PBS containing 1% FCS, and then fixed overnight in 85% ethanol at 4° C. Before analysis, the cells were pelleted, washed once, and stained in a solution of 10 μg propidium iodide and 250 μg of ribonuclease (RNAse) A per milliliter at 37° C. for half an hour. Flow cytometry analysis was performed on a Becton-Dickinson FACScan, and data from 10,000 cells per sample was analyzed with Modfit software."}}, "data": [{"smiles": "O=c1[nH]cc(F)c(=O)[nH]1", "note": "[5-fluorouracil]", "values": [{"measurement": "GI50", "setting": "A549 cells", "value": 1000, "unit": "nM"}]}, {"smiles": "COc1cccc2c1C(=O)c1c(O)c3c(c(O)c1C2=O)C[C@@](O)(C(=O)CO)C[C@@H]3O[C@H]1C[C@H](N)[C@H](O)[C@H](C)O1", "note": "[doxorubicin]", "values": [{"measurement": "GI50", "setting": "A549 cells", "value": 63, "unit": "nM"}]}, {"smiles": "NC(=O)NO", "note": "[hydroxyurea]", "values": [{"measurement": "GI50", "setting": "A549 cells", "value": 500000, "unit": "nM"}]}, {"smiles": "CC(=O)O[C@H]1C(=O)[C@@]2(C)[C@H]([C@H](OC(=O)c3ccccc3)[C@]3(O)C[C@H](OC(=O)[C@H](O)[C@@H](NC(=O)c4ccccc4)c4ccccc4)C(C)=C1C3(C)C)[C@]1(OC(C)=O)CO[C@@H]1C[C@@H]2O", "note": "[paclitaxel]", "values": [{"measurement": "shift in the population of cells from G0/G1 cell cycle stage (2n DNA content) to G2/M cell cycle stage (4n DNA content)", "setting": "[1]", "value": "caused a shift in the population of cells from a G0/G1 cell cycle stage (2n DNA content) to a G2/M cell cycle stage (4n DNA content)"}, {"measurement": "GI50", "setting": "A549 cells", "value": 4, "unit": "nM"}]}]}
